Results on eight compounds are retold here after US20200079786A1, “ANALOGS OF […] AS SOLUBLE EPOXIDE HYDROLASE INHIBITORS” (UNIVERSITAT DE BARCELONA, priority 2015, published 2020).

Converted amounts (≈) assume the structure as drawn.

The subject of data set [1] is Huh-7 cells. In words: Amelioration of palmitate-induced ER stress: ATF3, BiP and CHOP mRNA by real-time PCR. Format: cell-based. Particulars: palmitate 0.5 mM + inhibitor 1 μM, 48 h; for Level of CHOP mRNA: control (CT) = 100.0, PAL alone 224.5; for Level of BiP mRNA: control (CT) = 100.0, PAL alone 242.9; for Level of ATF3 mRNA: control (CT) = 100.0, PAL alone 585.5. As for the experimental part:
Huh-7 cells were maintained in a humid atmosphere of 5% CO2 at 37° C. in high glucose (25 mM) Dulbecco's modified Eagle's medium supplemented with 10% heat-inactivated fetal bovine serum, 1% of penicillin/streptomycin (10.000 units/mL of penicillin and 10.000 μg/mL of streptomycin) and 1% of amphotericin B (250 μg/mL).
Huh-7 cells were serum-starved overnight prior treatment. […] For RNA extraction, cells were pre-treated with the inhibitors (final concentration 1 μM) for 1 hour before treatment with palmitate (final concentration 0.5 mM) and inhibitors (final concentration 1 μM). For each condition, at least 3 replicates were performed. Following 48 hours of incubation, RNA were extracted as described below.
Total RNA in hepatocytes was harvested by TRIsure (Bioline) according to the manufacturer's instructions. The extracted RNA was dissolved in RNase-free water and concentrations of total RNA were quantified using a NanoDrop 2000c spectrophotometer (Thermo Scientific). First-stranded cDNA was synthesized from 0.5 μg total RNA (Life Technologies). […] The PCR reaction contained 10 ng of reverse-transcribed RNA, 2× IQ™ SYBRGreen Supermix (BioRad, Barcelona, Spain) and 900 nmol/L concentration of each primer. Optical primer amplification efficiency for each primer set was assessed and a dissociation protocol was carried out to assure a single PCR product. PCR assays were performed on a MiniOpticon™ Real-Time PCR system (BioRad). Thermal cycling conditions were as follows: activation of Taq DNA polymerase at 95° C. for 10 min, followed by 40 cycles of amplification at 95° C. for 15 sec and 60° C. for 1 min. The relative levels of specific mRNA were estimated from the value of the threshold cycle (Ct) of the real-time PCR adjusted by that of a housekeeping gene (GAPDH) through the formula […] (ΔCt=Gene of interest Ct-GAPDH Ct). Cf.
A general note: Quantitative PCR measures a nucleic acid by following its amplification.

Data set [2] in a line: Determination of water solubility (nephelometry). Type of data set: physicochemical. Particulars: aqueous with cosolvent or surfactant or cyclodextrin, kinetic from dmso stock; 5% DMSO: 95% PBS buffer, 37° C., read after 2 and 4 h; read-out: S (solubility).
Data set [3] addresses T1, sEH in AR42j cells (Rattus norvegicus, UniProt P80299).
T1 sequence (P80299 1-554): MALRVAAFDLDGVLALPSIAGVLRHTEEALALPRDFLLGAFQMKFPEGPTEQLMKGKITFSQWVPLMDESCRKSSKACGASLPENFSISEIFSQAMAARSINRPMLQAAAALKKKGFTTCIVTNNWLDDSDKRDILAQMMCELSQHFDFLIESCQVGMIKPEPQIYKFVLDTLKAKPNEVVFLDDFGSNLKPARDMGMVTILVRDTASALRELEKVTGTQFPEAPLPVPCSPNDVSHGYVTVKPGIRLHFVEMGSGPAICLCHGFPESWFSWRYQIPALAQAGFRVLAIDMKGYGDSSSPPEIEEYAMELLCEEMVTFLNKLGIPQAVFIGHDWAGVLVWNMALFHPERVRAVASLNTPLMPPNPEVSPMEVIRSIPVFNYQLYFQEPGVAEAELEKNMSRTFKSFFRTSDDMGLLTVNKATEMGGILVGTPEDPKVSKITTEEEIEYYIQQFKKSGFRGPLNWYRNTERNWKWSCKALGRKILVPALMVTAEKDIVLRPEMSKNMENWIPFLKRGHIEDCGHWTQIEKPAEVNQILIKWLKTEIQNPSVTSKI
In words: In vitro determination of sEH inhibition activity in AR42j cells (cell-based fluorescent assay). To be noted: AR-42J, read-out: % Inhn. ± SE (100 μM), sEH inhibition activity in cell culture.
Description: Solutions Preparation: • Assay buffer 1×: add 10 mL of the CBA-Buffer (10×) to 90 mL of distilled water. • Lysis Buffer: add 50 μL of the CBA Digitonin Solution to 10 mL of Buffer Assay 1×. • Substrate Solution: dilute 10 μL of CBA sEH Substrate with 10 mL of Assay Buffer 1×. • Standards: preparation of 7 concentrations of CBA 6-methoxy-2-naphtalaldehyde from 0 until 2 M with Assay Buffer 1×. • sEH Positive Control: Prepare another stock A (1 μg/ml: 1 μL CBA sEH Positive Control+1 mL Assay Buffer 1×). From the already prepared stock A, prepare 250 μL of sEH (10 ng/mL): 2.5 μL sEH stock A+250 μL Assay Buffer 1×). • sEH Inhibitor AUDA: dilute 10 μL CBA sEH Inhibitor with 500 ml Assay Buffer 1×. • Inhibitors dissolved in DMSO at appropriated concentrations.
Seed cells in a 96-well plate at a density of (2×10^4)-(5×10^4) cells/well in 100 μL of culture medium with or without compounds to be tested. Incubation of the cells in a CO2 incubator at 37° C. for 48 hours. Aspirate the culture medium and add 200 μL of Assay Buffer 1× to each well. Centrifuge the plate at 800 rmp for 5 minutes. Aspirate the supernatant and add 100 μL of Lysis Buffer to each well. Incubate with gentle shaking on an orbital shaker for 30 minutes at room temperature. Centrifuge the plate at 3000 rpm for 20 minutes at 4° C. Transfer 90 μL of the supernatants to the 96-Well Solid Plate (black). Add 10 μL Assay Buffer 1× or 10 μL of the AUDA solution to appropriate wells. For positive control wells, add 100 μL of the 10 ng/mL sEH Positive Control to two wells. Add 200 μL of 6-methoxy-2-Naphthaldehyde Standards to corresponding wells of the black plate. Add 100 μL of the sEH Substrate Solution to each well, except the standards. Incubate the plate at 37° C. for 30 minutes. […] The intensity of fluorescence was used to analyze and calculate inhibition percentages, shown in the Table as average of minimum three independent replicates.

Data set [4] in a line: Parallel artificial membrane permeation assay for blood-brain barrier (PAMPA-BBB). Format: in vitro ADME, porcine. To be noted: PBS:EtOH (70:30). As for the experimental part: The in vitro permeability (Pe) of the test compounds through lipid extract of porcine brain membrane was determined. Assayed compounds were tested using a mixture of PBS:EtOH (70:30). […] From this equation and taking into account the limits established by Di et al. for BBB permeation, the ranges of permeability were established, as follows.

Data set [5] is described as follows: Determination of cytotoxicity in THLE-2 cells (ATP viability). Type of data set: cell-based. Particulars: human; THLE-2 cells, 72 h exposure, 0-100 μM; read-out: LC50 (μM), cytotoxicity. As for the experimental part: Cytotoxic effects of assayed compounds were tested using the immortalized human liver cell line THLE-2 (ATCC CRL-2706). Cells were cultured in BEGM medium (Clonetics # CC-4175) containing all the supplements kit except additional EGF and G418. Medium was completed by adding 0.7 μg/mL phosphoethanolamine, 0.5 ng/mL epidermal growth factor, antibiotics (penicillin and streptomycin) and 10% fetal bovine serum (FBS).
Cells were plated in 96-well black microplates at 10,000 cells/well density and were incubated at 37° C. (5% CO2, 95% humidity) for 24 h to allow the cells to adhere and form a monolayer. Test compounds were solubilized in 100% DMSO at a concentration curve way and then diluted with cell culture medium containing 10% DMSO. The final concentrations of the test compounds (1% DMSO) ranged from 0-100 μM in a final volume of 200 μL. Microplates were maintained at 37° C. (5% CO2, 95% humidity) during 3 days. Following this 72 h exposure to test compounds, cell viability in each well was determined by measuring the concentration of cellular adenosine triphosphate (ATP) using the ATP1Step Kit as described by the manufacturer (Perkin-Elmer). In a typical procedure, 50 μL of cell reagent is added to all wells of each test plate followed by incubation for 10 min at room temperature on an orbital shaker. ATP concentration was determined by reading chemical luminescence using the Envision plate reader (PerkinElmer). The percentage of viable cells relative to the non-drug treated controls was determined for each well and LC50 values were calculated as concentrations projected to kill 50% of the cells following a 72 h exposure, an average of minimum two independent replicates.

Data set [6] deals with CYP2C19 (Homo sapiens, UniProt P33261). In words: Inhibition of human cytochrome P450 CYP2C19. Type of data set: in vitro ADME. To be noted: human cytochrome P450 enzyme. The source says: (§1) The epoxidation of arachidonic acid (AA) by selected cytochrome P450 epoxygenases generates epoxyeicosatrienoic acids (EETs). These EETs show anti-inflammatory, antihypertensive, analgesic, angiogenic, and antiatherosclerotic effects in rodents and humans. sEH converts EETs to their corresponding dihydroxyeicosatrienoic acids (DHETs), whereby the biological effects of EETs are diminished, eliminated, or altered. Among the P450 enzymes, it is known that CYP2C19 and CYP1A2 have the highest formation rate of EETs from AA (cf. A. A. El-Sherbeni et al. “Repurposing resveratrol and fluconazole to modulate human cytrochrome P450-mediated arachidonic acid metabolites”, Molecular Pharmaceutics 2016, vol. 13, pp. 1278-1288). For this reason, a highly desirable aspect of any new sEH inhibitor is selectivity in front of CYP2C19 and CYP1A2.
Sequence of CYP2C19 (P33261 whole entry): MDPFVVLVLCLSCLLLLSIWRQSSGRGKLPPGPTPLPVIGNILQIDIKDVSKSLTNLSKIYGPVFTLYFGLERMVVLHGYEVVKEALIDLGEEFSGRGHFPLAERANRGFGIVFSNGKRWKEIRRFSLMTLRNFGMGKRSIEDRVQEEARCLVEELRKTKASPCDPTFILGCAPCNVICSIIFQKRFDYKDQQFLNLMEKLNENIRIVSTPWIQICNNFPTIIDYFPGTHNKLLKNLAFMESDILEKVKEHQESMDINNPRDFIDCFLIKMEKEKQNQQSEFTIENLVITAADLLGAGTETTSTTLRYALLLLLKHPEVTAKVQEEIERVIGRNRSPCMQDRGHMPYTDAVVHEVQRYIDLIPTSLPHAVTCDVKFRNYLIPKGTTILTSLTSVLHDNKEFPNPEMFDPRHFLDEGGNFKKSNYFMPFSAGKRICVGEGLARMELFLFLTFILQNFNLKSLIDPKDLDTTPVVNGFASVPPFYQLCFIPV

The target in data set [7] is T2, CYP1A2 (Homo sapiens, UniProt P05177).
T2 sequence (P05177 1-516): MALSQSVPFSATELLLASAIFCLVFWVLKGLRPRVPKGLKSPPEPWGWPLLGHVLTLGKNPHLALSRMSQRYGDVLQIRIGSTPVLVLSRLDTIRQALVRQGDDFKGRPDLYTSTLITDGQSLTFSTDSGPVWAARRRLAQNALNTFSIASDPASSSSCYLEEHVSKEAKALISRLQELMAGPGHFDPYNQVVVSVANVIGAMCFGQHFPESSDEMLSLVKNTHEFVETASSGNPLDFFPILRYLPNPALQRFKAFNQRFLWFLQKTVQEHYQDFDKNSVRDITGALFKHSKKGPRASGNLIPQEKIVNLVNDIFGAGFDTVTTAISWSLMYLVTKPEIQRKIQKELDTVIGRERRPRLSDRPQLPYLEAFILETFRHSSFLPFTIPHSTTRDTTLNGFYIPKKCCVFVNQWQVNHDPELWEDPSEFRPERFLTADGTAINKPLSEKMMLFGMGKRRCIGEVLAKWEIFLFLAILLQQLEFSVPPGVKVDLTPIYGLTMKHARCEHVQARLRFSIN
Nature of the data set: Inhibition of human cytochrome P450 CYP1A2. Type of data set: in vitro ADME. Particulars: human cytochrome P450 enzyme.
Text: as §1

In the case of `O=C(Nc1ccc(F)c(F)c1F)NC1C2CC3CC(C2)CC1C3` (centres unmarked) [Std 2, 1-(Adamantan-2-yl)-3-(2,3,4-trifluorophenyl)urea, reference compound], in data set [1], the “Level of CHOP mRNA” value is 141.8 ± 23.7^(###), the “Level of BiP mRNA” value was 135.1 ± 16.2^(###) and the “Level of ATF3 mRNA” value was 225.6 ± 21.2^(###).
As for `O=C(Nc1ccc(F)c(F)c1F)NC12CC3CC(CC(C3)C1)C2` [Std 1, 1-(Adamantan-1-yl)-3-(2,3,4-trifluorophenyl)urea, reference compound], the solubility in data set [2] is 66 µM (≈ 21.4 µg/mL). Moreover, in data set [3], the inhibition at 100 µM is 56.6 ± 11%.
For the compound `CC(C)S(=O)(=O)N1CCC(NC(=O)NC23CC4CC(CC(C4)O2)C3)CC1` [Io, 1-(2-oxaadamant-1-yl)-3-(1-(isopropylsulfonyl)piperidin-4-yl)urea], the CNS prediction result in data set [4] was “CNS− (compounds of low BBB permeation (CNS−): Pe (10^6 cm s^−1)<2.107)”. Besides, the CC50 at 72 h in data set [5] was above 100 µM. The inhibition at 1 µM in data set [6] and in data set [7] was at most 6% each time. In addition, the solubility in data set [2] was above 100 µM. Moreover, the inhibition at 100 µM in data set [3] was 40.9 ± 1.99%.
Consider `O=C(Nc1ccc(F)c(F)c1F)NC12CC3CC(CC(C3)O1)C2` [Ia, 1-(2-oxaadamantan-1-yl)-3-(2,3,4-trifluorophenyl)urea], for which the CNS prediction result in data set [4] was “CNS+ (Compounds of high BBB permeation (CNS+): Pe (10^6 cm s^−1)>5.181)”. Further, in data set [5], the CC50 at 72 h was above 100 µM. Moreover, the inhibition at 1 µM in data set [6] is at most 6%. Moreover, the solubility in data set [2] is 77 µM (≈ 25.1 µg/mL). The inhibition at 100 µM in data set [3] was found to be 35.8 ± 4.7%. Further, in data set [1], the “Level of CHOP mRNA” value was 129.9 ± 37.6^(###), the “Level of BiP mRNA” value was 129.0 ± 20.5^(###) and the “Level of ATF3 mRNA” value is 191.4 ± 22.6^(###). In addition, the inhibition at 1 µM in data set [7] was at most 6%.
For `O=C(Nc1ccc(Cl)c(C(F)(F)F)c1)NC12CC3CC(CC(C3)O1)C2` [Iv, 1-(2-oxaadamantan-1-yl)-3-(4-chloro-3-(trifluoromethyl)phenyl)urea], the CNS prediction entry in data set [4] is “CNS+ (Compounds of high BBB permeation (CNS+): Pe (10^6 cm s^−1)>5.181)”. The CC50 at 72 h in data set [5] turned out to be 45.8 ± 3.8 µM. For the same compound, the inhibition at 1 µM in data set [6] and in data set [7] was at most 6% in each case. Also, the solubility in data set [2] worked out at 60 µM (≈ 22.5 µg/mL). For the same compound, in data set [3], the inhibition at 100 µM worked out at 51.6 ± 6.6%.
With `O=C(Nc1cc(Cl)cc(OC(F)(F)F)c1)NC12CC3CC(CC(C3)O1)C2` [Iu], the inhibition at 1 µM in data set [6] and in data set [7] was at most 6% throughout. Further, the solubility in data set [2] was 45 µM (≈ 17.6 µg/mL).
For `O=C(Nc1cccc(S(F)(F)(F)(F)F)c1)NC12CC3CC(CC(C3)O1)C2` [Ix, 1-(2-oxaadamantan-1-yl)-3-(3-(pentafluoro-λ^6-sulfanyl)phenyl)urea], the inhibition at 1 µM in data set [6] and in data set [7] was at most 6% in each case. In data set [2], the solubility was above 100 µM.
On to `O=C(NC1CCN(C(=O)c2ccccc2F)CC1)NC12CC3CC(CC(C3)O1)C2` [Is, 1-(2-oxaadamant-1-yl)-3-(1-(2-fluorobenzoyl)piperidin-4-yl)urea], for which, in data set [4], the CNS prediction result is “CNS− (compounds of low BBB permeation (CNS−): Pe (10^6 cm s^−1)<2.107)”. Moreover, in data set [5], the CC50 at 72 h was above 100 µM. Further, the inhibition at 1 µM in data set [6] and in data set [7] was at most 6% throughout. In addition, in data set [2], the solubility was above 100 µM. Moreover, in data set [3], the inhibition at 100 µM stood at 45.3 ± 3.5%.

Broadly, the solubility is the dissolved amount per volume that the medium holds. Usually inhibition stands for the share of the control response that was lost under treatment.
